Consider eleven molecules from patent US7563781B2, “Triazolopyrimidine derivatives” (Janssen Pharmaceutica NV, priority 2006, dated 2009).

The target of experiment [1] is T1, Focal Adhesion Kinase (full-length Flag-tagged human FAK) (Homo sapiens, UniProt Q05397).
T1 construct: a purified recombinant full-length Flag-tagged human FAK protein; Flag; made in house; host or cells: baculovirus infected insect cells
Nature of the experiment: in vitro FAK ELISA kinase assay. The note with it: compound 10 uM; ATP 2 uM; read-out: FAK % Inhib ave: 10 uM. It is filed as biochemical. The method in brief:
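Plate-coated GST fusion of the 73-residue region around Tyr397 phosphorylated by full-length Flag-tagged human FAK from baculovirus-infected insect cells, with 2 μM ATP in Mg/Mn HEPES pH 7.5, 1 h at 30 °C. Phosphotyrosine detected by HRP-anti-pTyr ELISA with TMB read-out. Compounds screened at 10 μM or titrated from 50 μM in half-log steps for IC50, BSA-substrate background subtracted.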

The target in experiment [2] is T2, CAK complex (human Cdk7, human Cyclin H, MAT-1) (Homo sapiens, UniProt P50613).
T2 construct: made in house; host or cells: SF-900 insect cells co-infected with Flag-Cdk7 and Bab-Cyclin H baculoviruses
T2 sequence (P50613 with tags, fused parts or gaps): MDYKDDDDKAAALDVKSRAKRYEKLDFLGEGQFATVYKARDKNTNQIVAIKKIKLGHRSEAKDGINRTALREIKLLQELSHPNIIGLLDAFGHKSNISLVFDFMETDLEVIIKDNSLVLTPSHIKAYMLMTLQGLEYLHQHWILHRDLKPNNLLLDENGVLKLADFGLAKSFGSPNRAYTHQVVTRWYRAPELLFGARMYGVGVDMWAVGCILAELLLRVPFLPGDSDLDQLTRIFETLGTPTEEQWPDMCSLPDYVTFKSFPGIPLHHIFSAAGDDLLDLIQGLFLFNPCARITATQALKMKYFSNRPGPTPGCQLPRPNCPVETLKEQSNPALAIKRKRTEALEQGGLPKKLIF
T2 sequence (as listed by the source partner): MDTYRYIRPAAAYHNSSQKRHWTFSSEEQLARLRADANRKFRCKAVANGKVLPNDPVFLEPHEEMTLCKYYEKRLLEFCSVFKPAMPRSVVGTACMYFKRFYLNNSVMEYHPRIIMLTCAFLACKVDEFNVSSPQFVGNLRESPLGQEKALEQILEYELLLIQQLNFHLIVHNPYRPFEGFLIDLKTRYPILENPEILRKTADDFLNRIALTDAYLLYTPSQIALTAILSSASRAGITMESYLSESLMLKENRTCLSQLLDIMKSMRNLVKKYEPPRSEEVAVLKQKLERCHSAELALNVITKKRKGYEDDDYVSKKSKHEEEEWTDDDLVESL
Nature of the experiment: in vitro time-resolved-fluorescence assay for the CAK kinase activity. It is filed as biochemical. The following applies: compound 20 uM; read-out: CAK % inhib; 20 uM. In short, it runs like this:
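Kinase activity of the human CAK complex (Flag-tagged Cdk7, Cyclin H, MAT-1), purified from co-infected SF-900 insect cells by Flag-M2 immunoaffinity, was measured by time-resolved fluorescence. In black glutathione-coated 96-well plates, 500 ng GST-CTD substrate with 22 uM ATP was mixed with compound in 30% DMSO/25 mM Hepes and 250 ng CAK. Plates were incubated 20 minutes at 30° C, then stopped with EDTA, bound overnight and washed. A Europium-labeled antibody detected serine-phosphorylated CTD.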

T1 sequence (Q05397 whole entry): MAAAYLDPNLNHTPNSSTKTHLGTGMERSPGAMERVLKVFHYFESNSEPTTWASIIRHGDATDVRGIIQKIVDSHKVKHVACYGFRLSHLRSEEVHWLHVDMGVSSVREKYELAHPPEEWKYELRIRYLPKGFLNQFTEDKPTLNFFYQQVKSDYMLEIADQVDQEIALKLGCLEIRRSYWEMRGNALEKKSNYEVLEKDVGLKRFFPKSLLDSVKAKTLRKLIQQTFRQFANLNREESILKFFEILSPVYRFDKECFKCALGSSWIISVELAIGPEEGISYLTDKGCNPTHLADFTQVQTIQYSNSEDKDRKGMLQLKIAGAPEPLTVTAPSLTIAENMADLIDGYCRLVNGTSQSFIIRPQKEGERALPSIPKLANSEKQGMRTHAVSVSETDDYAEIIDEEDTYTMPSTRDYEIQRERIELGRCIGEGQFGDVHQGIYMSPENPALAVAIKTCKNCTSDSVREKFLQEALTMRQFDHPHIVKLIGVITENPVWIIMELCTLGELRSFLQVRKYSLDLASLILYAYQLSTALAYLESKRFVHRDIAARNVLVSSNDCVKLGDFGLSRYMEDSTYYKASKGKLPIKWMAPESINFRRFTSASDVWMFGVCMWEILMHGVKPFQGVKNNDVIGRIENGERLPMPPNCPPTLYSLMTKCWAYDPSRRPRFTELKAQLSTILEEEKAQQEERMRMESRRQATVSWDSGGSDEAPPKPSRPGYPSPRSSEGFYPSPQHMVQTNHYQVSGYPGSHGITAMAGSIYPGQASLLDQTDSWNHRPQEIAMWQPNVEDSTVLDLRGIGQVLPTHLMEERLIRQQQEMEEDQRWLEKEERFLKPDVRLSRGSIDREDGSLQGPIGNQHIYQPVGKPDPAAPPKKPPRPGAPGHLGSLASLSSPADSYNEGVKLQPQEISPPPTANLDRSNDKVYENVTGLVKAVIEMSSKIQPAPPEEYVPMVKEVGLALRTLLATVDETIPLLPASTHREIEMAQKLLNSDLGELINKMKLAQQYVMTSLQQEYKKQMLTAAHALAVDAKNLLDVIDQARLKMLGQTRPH

On to `CCOC(=O)N1CCC(n2nnc3cnc(Nc4ccc(C(=O)NCCN(CC)CC)cc4)nc32)CC1` [Compound 64, 4-{5-[4-(2-Diethylamino-ethylcarbamoyl)-phenylamino]-[1,2,3]triazolo[4,5-d]pyrimidin-3-yl}-piperidine-1-carboxylic acid ethyl ester], for which the inhibition at 10 µM in experiment [1] was found to be 29.1%. The inhibition at 20 µM in experiment [2] was 33.9%.
For `CCN(CC)CCNC(=O)c1ccc(-n2nnc3cnc(Nc4cccc(-c5nnn[nH]5)c4)nc32)cc1` [Compound 65, N-(2-Diethylamino-ethyl)-4-{5-[3-(1H-tetrazol-5-yl)-phenylamino]-[1,2,3]triazolo[4,5-d]pyrimidin-3-yl}-benzamide] the same measures were 54.7% and 42.7%.
With `CCN(CC)CCNC(=O)c1ccc(Nc2ncc3nnn(-c4cc[nH]n4)c3n2)cc1` [Compound 66], in experiment [1], the inhibition at 10 µM came to 87.2%. The inhibition at 20 µM in experiment [2] amounted to 68.1%.
For `c1cc(Nc2ncc3nnn(C4CCCC4)c3n2)cc(-c2nnn[nH]2)c1` [Compound 67, (3-Cyclopentyl-3H-[1,2,3]triazolo[4,5-d]pyrimidin-5-yl)-[3-(1H-tetrazol-5-yl)-phenyl]-amine] the same measures were 15.4% and 44.2%.
For `CCN(CC)CCNC(=O)c1ccc(Nc2ncc3nnn(C4CCCC4)c3n2)cc1` [Compound 68, 4-(3-Cyclopentyl-3H-[1,2,3]triazolo[4,5-d]pyrimidin-5-ylamino)-N-(2-diethylamino-ethyl)-benzamide] the same measures were 56.5% and 63.8%.
The matching figures for `CCN(CC)CCNC(=O)c1ccc(Nc2ncc3nnn(Cc4ccc(N(C)C)cc4)c3n2)cc1` [Compound 69, N-(2-Diethylamino-ethyl)-4-[3-(4-dimethylamino-benzyl)-3H-[1,2,3]triazolo[4,5-d]pyrimidin-5-ylamino]-benzamide]: 27% and -11.4%.
For `CCN(CC)CCNC(=O)c1ccc(Nc2ncc3nnn([C@@H](CO)[C@@H](O)c4ccccc4)c3n2)cc1` [Compound 70, N-(2-Diethylamino-ethyl)-4-[3-(2-hydroxy-1-hydroxymethyl-2-phenyl-ethyl)-3H-[1,2,3]triazolo[4,5-d]pyrimidin-5-ylamino]-benzamide], the inhibition at 10 µM in experiment [1] came to 15%. Besides, the inhibition at 20 µM in experiment [2] is 21%.
The matching figures for `CCN(CC)CCNC(=O)c1ccc(Nc2ncc3nnn(Cc4nc5ccccc5[nH]4)c3n2)cc1` [Compound 71, 4-[3-(1H-Benzoimidazol-2-ylmethyl)-3H-[1,2,3]triazolo[4,5-d]pyrimidin-5-ylamino]-N-(2-diethylamino-ethyl)-benzamide]: 27.5% and 52.8%.
For `O=C(NCCCN1CCCC1)c1cccc(Nc2ncc3nnn(-c4ccc5c(c4)CCC5)c3n2)c1` [Compound 72, 3-(3-Indan-5-yl-3H-[1,2,3]triazolo[4,5-d]pyrimidin-5-ylamino)-N-(3-pyrrolidin-1-yl-propyl)-benzamide] the same measures were 81.5% and 98.4%.
For the molecule `O=C(NCCN1CCOCC1)c1cccc(Nc2ncc3nnn(-c4ccc5c(c4)CCC5)c3n2)c1` [Compound 73, 3-(3-Indan-5-yl-3H-[1,2,3]triazolo[4,5-d]pyrimidin-5-ylamino)-N-(2-morpholin-4-yl-ethyl)-benzamide], the inhibition at 10 µM in experiment [1] turned out to be 31.2%. For the same molecule, the inhibition at 20 µM in experiment [2] was 47.5%.
For `O=C(NCCCn1ccnc1)c1ccc(Nc2ncc3nnn(-c4ccc5c(c4)CCC5)c3n2)cc1` [Compound 74, N-(3-Imidazol-1-yl-propyl)-4-(3-indan-5-yl-3H-[1,2,3]triazolo[4,5-d]pyrimidin-5-ylamino)-benzamide] the same measures were 72.8% and 42.7%.
